Experimental data as given in article PMC5683375, “Vasculotide reduces pulmonary hyperpermeability in experimental pneumococcal pneumonia” (Critical Care, 2017).
“Also recorded” adds a separate entry of the source. Where two headings read alike, the source gives them in different places.

Columns and labels:
Tie2 [1] = test: Tie2 phosphorylation in mouse primary lung microvascular endothelial cells (phospho-Tie2 ELISA); type: cell-based; conditions: VT 1, 10, 100, 1000 ng/ml, 15 minutes, serum-containing media; phospho-Tie2 and total Tie2 ELISA; n = 3-6
Procedure: C57BL/6 mouse primary lung microvascular endothelial cells (Cell Biologics, Chicago, IL, USA) were grown in endothelial cell medium with a kit (Cell Biologics) in 20% O2/5% CO2 in a 37 °C humidified chamber and split 1:2 once reaching 90–95% confluency. To examine the activation of Tie2 by VT in mouse primary lung microvascular endothelial cells, 95–100% confluent cells were stimulated with VT (1, 10, 100, and 1000 ng/ml) in serum-containing media for 15 minutes. Human Ang-1 (R&D Systems) was used as a positive control. VT was synthesized, purified, and validated as described before. Cell lysates were collected using lysis buffer recommended in the mouse phospho-Tie-2 enzyme-linked immunosorbent assay (ELISA) kit (R&D Systems); tyrosine-phosphorylated Tie2 and total Tie2 were measured using ELISA kits (mouse phospho-Tie2 and total-Tie2 ELISA kits; R&D Systems). Three to six independent experiments were analyzed.
Saturation binding data (Fig. 1a–c) are presented as mean ± SEM and were calculated using normalized one-site specific binding and nonlinear regression. For the Tie2 phosphorylation analysis (Fig. 1d), one-way analysis of variance (with Dunnett’s post hoc multiple comparisons test) was used to compare treatment groups with the vehicle-treated group. All other experimental data are expressed as mean, mean + SEM, or mean ± SEM. […]

[2] = test system: human pulmonary microvascular endothelial cells (hPMVEC); test: Immunofluorescence staining (VE-cadherin, actin) of human pulmonary microvascular endothelial cells; type: cell-based; conditions: VT 300 ng/ml
Procedure: Human pulmonary microvascular endothelial cells (hPMVEC; PromoCell, Heidelberg, Germany), used at passages 4–6, were grown to confluence on glass slides, incubated with VT (300 ng/ml) or sterile PBS as a control for 90 minutes and then stimulated with LPS (0.1 μg/ml) from Escherichia coli (Sigma-Aldrich, Steinheim, Germany), PLY (0.25, 0.5, 0.75 μg/ml), or PBS. After 30 minutes, cells were fixed in 3% formalin, and the […] vascular endothelial (VE)-cadherin (1:400, goat antihuman VE-cadherin; Santa Cruz Biotechnology, Santa Cruz, CA, USA; secondary antibody 1:8000, Alexa Fluor 488 F(ab′)2 rabbit antigoat IgG (H + L), Invitrogen, Darmstadt, Germany) and actin fibers (1:2000; phalloidin Alexa 546-labeled; Invitrogen) were stained to evaluate cell morphology. 4′,6-diamidino-2-phenylindole staining (Sigma-Aldrich) was used to visualize cell nuclei. The immunofluorescence of the cells was analyzed by confocal microscopy using an LSM 780 microscope with ZEN 2011 software (objective: Plan Apochromat × 63/1.40 oil; Carl Zeiss Microscopy, Jena, Germany).

Streptococcus pneumoniae = test: Bacterial growth in vitro (optical density); type: cell-based, Streptococcus pneumoniae serotype 3 (NCTC7978); conditions: VT 5 µg/ml, log-phase culture, THY media, 37°C, 5% CO2; OD every 30 min for 5 hours; preliminary experiment
Procedure: experiment, we investigated if Vasculotide (VT) has a direct effect on the bacterial growth of Streptococcus pneumoniae. Capsulated S. pneumoniae (S. pn.) serotype 3 (NCTC7978) was cultured on Columbia blood agar + 5% sheep blood for 8 h. Single colonies were transferred into THY media to yield OD600 = 0.03-0.04. Liquid cultures were incubated at 37°C and 5% CO2 for 2.5-4 h until the bacteria reached a phase of logarithmic growth (OD600 = 0.3-0.4).
30 min later, log-phase bacterial cultures were treated with VT (5 µg/ml) or PBS. Optical density was measured every 30 min for further 5 hours. Individual time-proliferation curves

murine endotoxemia = conditions: cited from earlier work
acute kidney injury = test system: acute kidney injury; parameters: method as in PMID 26911791; conditions: cited from earlier work
[3] = test system: mice with influenza pneumonia; conditions: cited from earlier work
[4] = test system: acute skin ionizing radiation in mice; conditions: cited from earlier work
Tie2 [5] = test system: Tie2; parameters: method as in PMID 18939935, PMID 21421750, PMID 22040774, PMID 26046800, PMID 25159192; conditions: other cell types/tissues; cited from earlier work
[6] = Body weight and temperature of Streptococcus pneumoniae-infected mice; conditions: VT i.v. (500 ng in Figure S2), 46 h p.i. in Figure S2, vs infected, PBS-treated
[7] = test system: Streptococcus pneumoniae-infected mice; test: BALF cytokines (multiplex assay) in Streptococcus pneumoniae-infected mice; conditions: VT 500 ng i.v., n = 8
Procedure: (§1) For all experiments, female C57BL/6 N mice (8 to 10 weeks old, weighing 18 to 20 g; Charles River Laboratories, Sulzfeld, Germany) were used. Animals were housed under specific pathogen-free conditions under a 12–h/12-h light/dark cycle with free access to food and water.
(§2) Mice were anesthetized with ketamine (80 mg/kg) and xylazine (25 mg/kg) and transnasally inoculated with 5 × 10^6 colony-forming units (CFU) of S. pneumoniae (NCTC7978) in 20 μl of sterile PBS as described before [35]. Sham-infected control mice received 20 μl of sterile PBS. After 22 h, 34 h, and 46 h, body weight and rectal temperature were measured, and different dosages of VT (100, 200, or 500 ng in 100 μl of PBS) or PBS were intravenously injected into the tail vein. Twenty-four or forty-eight hours postinfection (p.i.), mice were anesthetized (160 mg/kg ketamine and 75 mg/kg xylazine) and exsanguinated. […] Subsequently, lungs were flushed, and BAL was performed. To determine permeability, HSA (1 mg/75 μl) was intravenously infused 1 h before lung preparation, and the BALF/plasma ratio was calculated as described elsewhere [35]. […] Cytokines from BALF were measured with a multiplex assay (ProcartaPlex; eBioscience), and plasma levels of interleukin (IL)-6 (BD Biosciences) and KC (keratinocyte chemoattractant; R&D Systems) were quantified by ELISA.

[8] = test system: Streptococcus pneumoniae-infected mice; test: BALF leukocyte recruitment (FACS) in Streptococcus pneumoniae-infected mice; conditions: VT 500 ng i.v., 24 h and 48 h p.i., n = 8
Procedure: as §1, §2

[9] = test system: Streptococcus pneumoniae-infected mice; test: Plasma levels of IL-6 and KC (ELISA) in Streptococcus pneumoniae-infected mice; conditions: VT 500 ng i.v., n = 8
Procedure: as §1, §2

For Vasculotide [VT], the Tie2 phosphorylation (Tie2 [1]) was “resulted in Tie2 phosphorylation in a dose-dependent manner; also recorded: dose-dependent phosphorylation of Tie2”, the “monolayer stabilization (gap formation, stress fibers, cell loss) after LPS or PLY” value ([2]; 90 minutes pretreatment, LPS 0.1 μg/ml or PLY 0.25, 0.5, 0.75 μg/ml for 30 minutes, three independent experiments) was “stabilized cell monolayers, protected from gap formation, and reduced stress fibers as well as cell loss; also recorded: stabilized the cell monolayer, avoided gap formation, and reduced stress fibers and cell loss from culture dishes” and the “effect on unstimulated hPMVEC monolayer” value ([2]; 90 minutes, no LPS or PLY) was “no effect of VT pretreatment was observed; also recorded: intact monolayers with tight intercellular contacts and thin actin fibers”. The “direct antimicrobial activity / bacterial growth” value (Streptococcus pneumoniae) was “did not affect bacterial growth in vitro; also recorded: failed to show a direct antimicrobial activity”, the “endotoxemia-induced lung vascular leakage” value (murine endotoxemia) was “prevent endotoxemia-induced lung vascular leakage” and the “protective effect in murine endotoxemia” value (murine endotoxemia; endotoxemia) was “protective effect”. The “barrier disruption in acute kidney injury” value (acute kidney injury) was “protective effect; also recorded: diminish barrier disruption”, the “survival of mice with influenza pneumonia” value [3] was “increase the survival” and the “leukocyte influx into the lung in influenza pneumonia” value ([3]; ref 28 (Sugiyama et al.)) was “without affecting leukocyte influx into the lung”. The “pulmonary barrier function in influenza pneumonia” value ([3]; ref 28 (Sugiyama et al.)) was “protective effect of VT on pulmonary barrier function”, the “virus replication in influenza pneumonia” value ([3]; ref 28 (Sugiyama et al.)) was “without affecting leukocyte influx into the lung or repressing virus replication” and the “acute skin ionizing radiation” value [4] was “protective effect”. For the same substance, the Tie2 phosphorylation (Tie2 [5]) was “confirms findings of other studies”, the body weight [6] was “did not influence; also recorded: not affected” and the body temperature ([6]; rectal) was “did not influence; also recorded: not affected”. The “BALF cytokine concentrations (except IL-12p40)” value ([7]; 24 h and 48 h p.i.) was “not significantly affected; also recorded: not significantly reduced”, the “IL-12p40 levels in BALF, 48 h p.i.” value ([7]; 48 h p.i.) was “reduced; also recorded: decreased” and the “pulmonary leukocyte recruitment (BALF)” value [8] was “did not significantly reduce; also recorded: not significantly affected; also recorded: not significantly reduced”. The “IL-6 and KC plasma levels, trend” value ([9]; 24 h and 48 h p.i.) was “slightly decreased by trend”, the “IL-6 plasma level, 24 h p.i.” value ([9]; 24 h p.i.) was “significantly reduced” and the “IL-6 plasma level, 48 h p.i.” value ([9]; 48 h p.i.) was “did not differ”.
